Values joined by “and” are separate entries in the source; they are usually repeats but may differ in a detail not shown here. Equal entries are not always repeated.
Tested on: collagen-induced arthritis
Assay: Collagen-induced arthritis (CIA) model: clinical scores and paw volume; for Animal paw volume percent change (%): reference of the scale not given here; for Average animal paw volume percent change (%): reference of the scale not given here
Assay type: in vivo, Lewis rats
Details: for Animal paw volume percent change (%) / Animal paw volume / clinical score left forelimb / clinical score right forelimb / clinical score right hind limb / clinical score, score (all limbs) / clinical score left hind limb: individual animals; for Average detailed clinical score, left forelimb / Average detailed clinical score, left hind limb / Average detailed clinical score, right forelimb / Average detailed clinical score, right hind limb / Average detailed clinical score, score / Average overall clinical score / Overall Clinical Score / Animal paw volume: Day 21; for Overall Clinical Score: individual animals 1-8
[1] = Day 21, R paw, group 7 CIA + Compound A 10 mg/kg
[2] = group 5 CIA + Compound A 1 mg/kg, 2nd section of table, 1st day (between Day 12 and Day 18)
[3] = group 5 CIA + Compound A 1 mg/kg, 2nd section of table, 1st day (between Day 12 and Day 18), 1 mg/kg
[4] = group 5 CIA + Compound A 1 mg/kg, 2nd section of table, 2nd day (between Day 12 and Day 18)
[5] = group 5 CIA + Compound A 1 mg/kg, 2nd section of table, 2nd day (between Day 12 and Day 18), 1 mg/kg
[6] = group 5 CIA + Compound A 1 mg/kg, 2nd section of table, 3rd day (between Day 12 and Day 18)
[7] = group 5 CIA + Compound A 1 mg/kg, 2nd section of table, 3rd day (between Day 12 and Day 18), 1 mg/kg
[8] = group 5 CIA + Compound A 1 mg/kg, Day 18
[9] = group 5 CIA + Compound A 1 mg/kg, Day 18, 1 mg/kg
[10] = group 5 CIA + Compound A 1 mg/kg, Day 19
[11] = group 5 CIA + Compound A 1 mg/kg, Day 19, 1 mg/kg
[12] = group 5 CIA + Compound A 1 mg/kg, Day 20
[13] = group 5 CIA + Compound A 1 mg/kg, Day 20, 1 mg/kg
[14] = group 6 CIA + Compound A 3 mg/kg, 2nd section of table, 1st day (between Day 12 and Day 18)
[15] = group 6 CIA + Compound A 3 mg/kg, 2nd section of table, 2nd day (between Day 12 and Day 18)
[16] = group 6 CIA + Compound A 3 mg/kg, 2nd section of table, 2nd day (between Day 12 and Day 18), 3 mg/kg
[17] = group 6 CIA + Compound A 3 mg/kg, 2nd section of table, 3rd day (between Day 12 and Day 18)
[18] = group 6 CIA + Compound A 3 mg/kg, 2nd section of table, 3rd day (between Day 12 and Day 18), 3 mg/kg
[19] = group 6 CIA + Compound A 3 mg/kg, Day 18
[20] = group 6 CIA + Compound A 3 mg/kg, Day 18, 3 mg/kg
[21] = group 6 CIA + Compound A 3 mg/kg, Day 19
[22] = group 6 CIA + Compound A 3 mg/kg, Day 19, 3 mg/kg
[23] = group 6 CIA + Compound A 3 mg/kg, Day 20
[24] = group 6 CIA + Compound A 3 mg/kg, Day 20, 3 mg/kg
[25] = group 7 CIA + Compound A 10 mg/kg, 2nd section of table, 1st day (between Day 12 and Day 18), 10 mg/kg
[26] = group 7 CIA + Compound A 10 mg/kg, 2nd section of table, 2nd day (between Day 12 and Day 18)
[27] = group 7 CIA + Compound A 10 mg/kg, 2nd section of table, 2nd day (between Day 12 and Day 18), 10 mg/kg
[28] = group 7 CIA + Compound A 10 mg/kg, 2nd section of table, 3rd day (between Day 12 and Day 18)
[29] = group 7 CIA + Compound A 10 mg/kg, 2nd section of table, 3rd day (between Day 12 and Day 18), 10 mg/kg

Cn1cc(-c2ccccc2)c(-c2cn(C)c(=O)c3[nH]c(-c4cnn(C(F)(F)F)c4)cc23)cc1=O [Compound A, 6-methyl-4-(1-methyl-2-oxo-5-phenyl-1,2-dihydropyridin-4-yl)-2-(1-(trifluoromethyl)-1H-pyrazol-4-yl)-1,6-dihydro-7H-pyrrolo[2,3-c]pyridin-7-one]
Average animal paw volume percent change (%) (Day 21, R paw, group 6 CIA + Compound A 3 mg/kg): 38.15%
Average animal paw volume [1]: 1.81 mL
Average animal paw volume percent change (%) [1]: 38.27%
Animal paw volume percent change (%) (Day 21, R paw, group 5 CIA + Compound A 1 mg/kg, 1 mg/kg): 73.56% and 88.03% and 50.91% and 70.19% and 18.45% and 55.51% and 49.81%
Animal paw volume percent change (%) (Day 21, R paw, group 6 CIA + Compound A 3 mg/kg, 3 mg/kg): 64.91% and 27.24% and 46.04% and 29.74% and 60.23%
Average detailed clinical score, left forelimb (CIA + Compound A 1 mg/kg): 1.00
Average detailed clinical score, left hind limb (CIA + Compound A 1 mg/kg): 4.00
Average detailed clinical score, right forelimb (CIA + Compound A 1 mg/kg): 1.00
Average detailed clinical score, right hind limb (CIA + Compound A 1 mg/kg): 3.75
Average detailed clinical score, score (CIA + Compound A 1 mg/kg): 9.75
Average overall clinical score (CIA + Compound A 1 mg/kg): 5
Overall Clinical Score (CIA + Compound A 1 mg/kg, 1 mg/kg): 0 and 6 (5×) and 8 and 2
Average detailed clinical score, left forelimb (CIA + Compound A 3 mg/kg): 0.00
Average detailed clinical score, left hind limb (CIA + Compound A 3 mg/kg): 2.50
Average detailed clinical score, right forelimb (CIA + Compound A 3 mg/kg): 1.25
Average detailed clinical score, right hind limb (CIA + Compound A 3 mg/kg): 2.75
Average detailed clinical score, score (CIA + Compound A 3 mg/kg): 6.50
Average overall clinical score (CIA + Compound A 3 mg/kg): 4
Overall Clinical Score (CIA + Compound A 3 mg/kg, 3 mg/kg): 5 (2×) and 3 (2×)
Average detailed clinical score, left forelimb (CIA + Compound A 10 mg/kg): 0.00
Average detailed clinical score, left hind limb (CIA + Compound A 10 mg/kg): 1.88
Average detailed clinical score, right forelimb (CIA + Compound A 10 mg/kg): 0.13
Average detailed clinical score, right hind limb (CIA + Compound A 10 mg/kg): 1.63
Average detailed clinical score, score (CIA + Compound A 10 mg/kg): 3.63
Average overall clinical score (CIA + Compound A 10 mg/kg): 4
Animal paw volume (L paw, Group 5 (CIA + Compound A 1 mg/kg), 1 mg/kg): 2.05 mL and 2.45 mL and 2.08 mL (2×) and 2.27 mL and 1.64 mL and 2.15 mL
Animal paw volume (L paw, Group 6 (CIA + Compound A 3 mg/kg), 3 mg/kg): 1.92 mL and 2.19 mL and 1.64 mL and 1.52 mL and 1.80 mL
Animal paw volume (R paw, Group 5 (CIA + Compound A 1 mg/kg), 1 mg/kg): 2.27 mL and 2.44 mL and 2.08 mL and 2.26 mL and 1.61 mL and 2.05 mL and 1.99 mL
Animal paw volume (R paw, Group 6 (CIA + Compound A 3 mg/kg), 3 mg/kg): 2.19 mL and 1.64 mL and 1.94 mL and 1.75 mL and 2.08 mL
clinical score left forelimb [2]: 0
clinical score right forelimb [2]: 0
clinical score right hind limb [3]: 0 (6×) and 1 (2×)
clinical score, score (all limbs) [3]: 0 (6×) and 2 and 1
clinical score left forelimb [4]: 0
clinical score right forelimb [4]: 0
clinical score left hind limb [5]: 0 (5×) and 2 and 1 (2×)
clinical score right hind limb [5]: 0 (5×) and 1 (3×)
clinical score, score (all limbs) [5]: 0 (3×) and 2 (2×) and 1 (3×)
clinical score left forelimb [6]: 0
clinical score right forelimb [6]: 0
clinical score left hind limb [7]: 0 (3×) and 2 (3×) and 1 (2×)
clinical score right hind limb [7]: 0 (3×) and 2 (2×) and 1 (3×)
clinical score, score (all limbs) [7]: 0 (3×) and 4 and 3 (3×) and 2
clinical score left forelimb [8]: 0
clinical score right forelimb [8]: 0
clinical score left hind limb [9]: 0 and 2 (3×) and 4 and 3 (2×) and 1
clinical score right hind limb [9]: 0 and 3 (4×) and 2 (2×) and 1
clinical score, score (all limbs) [9]: 0 and 5 (3×) and 7 and 6 and 2 and 4
clinical score left forelimb [10]: 0
clinical score right forelimb [10]: 0
clinical score left hind limb [11]: 0 and 3 (5×) and 4 and 1
clinical score right hind limb [11]: 0 and 3 (5×) and 4 and 2
clinical score, score (all limbs) [11]: 0 and 6 (5×) and 8 and 3
clinical score left forelimb [12]: 0
clinical score right forelimb [12]: 0
clinical score left hind limb [13]: 0 and 3 (5×) and 4 and 1
clinical score right hind limb [13]: 0 and 3 (5×) and 4 and 1
clinical score, score (all limbs) [13]: 0 and 6 (5×) and 8 and 2
clinical score left forelimb [14]: 0
clinical score right forelimb [14]: 0
clinical score left forelimb [15]: 0
clinical score right forelimb [15]: 0
clinical score left hind limb [16]: 0 (6×) and 1 (2×)
clinical score, score (all limbs) [16]: 0 (6×) and 1 and 3
clinical score left forelimb [17]: 0
clinical score right forelimb [17]: 0
clinical score left hind limb [18]: 0 (4×) and 1 (4×)
clinical score right hind limb [18]: 0 (5×) and 2 and 1 (2×)
clinical score, score (all limbs) [18]: 0 (4×) and 1 and 3 and 2 (2×)
clinical score left forelimb [19]: 0
clinical score right forelimb [19]: 0
clinical score left hind limb [20]: 2
clinical score right hind limb [20]: 2
clinical score, score (all limbs) [20]: 4
clinical score left forelimb [21]: 0
clinical score right forelimb [21]: 0
clinical score left hind limb [22]: 2
clinical score right hind limb [22]: 3 and 2
clinical score, score (all limbs) [22]: 5 and 4
clinical score left forelimb [23]: 0
clinical score right forelimb [23]: 0
clinical score left hind limb [24]: 2 and 3
clinical score right hind limb [24]: 3
clinical score, score (all limbs) [24]: 5
clinical score left forelimb (group 7 CIA + Compound A 10 mg/kg, 2nd section of table, 1st day (between Day 12 and Day 18)): 0
clinical score left hind limb [25]: 0 (7×) and 1
clinical score right hind limb [25]: 0 (6×) and 1 (2×)
clinical score, score (all limbs) [25]: 0 (6×) and 1 and 3
clinical score left forelimb [26]: 0
clinical score right forelimb [26]: 0
clinical score left hind limb [27]: 0 (6×) and 1 (2×)
clinical score right hind limb [27]: 0 (6×) and 2 and 1
clinical score, score (all limbs) [27]: 0 (5×) and 1 and 2 (2×)
clinical score left forelimb [28]: 0
clinical score right forelimb [28]: 0
clinical score left hind limb [29]: 1 (2×) and 0 (4×) and 2 (2×)
clinical score right hind limb [29]: 1 (2×) and 0 (5×) and 2
clinical score, score (all limbs) [29]: 2 and 0 (4×) and 1 and 4 and 3

— patent US20260217701A1, “SELECTIVE BET INHIBITORS AND USES THEREOF” (Tay Therapeutics Limited, priority 2022, published 2026)
